Legend:
A II receptor [1] = test: receptor binding test: displacement of 125I-Sar1-Ile8-AT II or [3H] AT II in the rat adrenal cortex
Text: (§1) The compounds described in the present invention act as antagonists at the A II receptor level. For the characterization and the evaluation of the effectiveness of the compounds of the invention, in vitro tests (such as the inhibition of the A II-induced contraction in the rabbit aorta and the displacement of ^125 I-Sar^1 -Ile^8 -AT II or [^3 H] AT II in the rat adrenal cortex) and an in vivo test (the inhibition of the A II-induced pressory response in the ganglio-blocked normotensive rat) were selected.

A II receptor [2] = test: inhibition of the A II-induced contraction in the rabbit aorta
Text: as §1

CCCCc1c(Cc2ccc(-c3ccccc3-c3nnn[nH]3)cc2)c(=O)nc2n1C(C)C(=O)N2 (centres unmarked) [ex.6, 5-butyl-3-methyl-6-[[2'-(1H-tetrazol-5-yl)biphenyl-4-yl]methyl]imidazo[1,2-a]pyrimidin-2,7-dione]
Ki (A II receptor [1]): 5 nM | PKB (A II receptor [2]): 10.4

Reference: patent publication US5804583A, “Pyrimidinone derivatives fused to nitrogen heterocycles having a II antagonistic activity” (Istituto Luso Farmaco D'Italia, priority 1993, dated 1998)
